Data on one molecule can be found in patent US20090325909A1, “Suppression of HIV replication and prevention and treatment of HIV” (The Johns Hopkins University, priority 2003, published 2009).

The structures appear in SMILES notation. Where a name gives a salt, the structure may show the parent alone.

Experiment [1] deals with SIV/DeltaB670 and SIV/17E-Fr. Description: Incidence and severity of encephalitis in the accelerated SIV/macaque model. The note with it: 4 mg/kg/day oral from 21 days p.i., euthanized at 84 days p.i., n = 5. The format is in vivo, pigtailed macaques (Macaca nemestrina). An excerpt:
Primate model for asymptomatic acute SIV infection. To identify events during acute and asymptomatic infection that lead to CNS disease a SIV/macaque model was developed in which the vast majority of infected animals develop CNS disease. […] These findings indicated the presence of mechanisms in the CNS that quell SIV replication and macrophage activation early after infection.
To identify events during acute and asymptomatic infection that lead to CNS disease in a SIV/macaque, a model was needed in which the vast majority of infected animals develop CNS disease. […] Virus replication and macrophage activation markers in the CNS declined in all macaques by 21 days p.i., despite high levee virus replication in the peripheral blood at this time. These findings indicated the presence of mechanisms in the CNS that quell SIV replication and macrophage activation early after infection.
Animals. Twenty-eight pigtailed macaques (Macaca nemestrina) were intravenously inoculated with a virus swarm, SIV/DeltaB670, and a cloned, neurovirulent virus, SIV/17Efr. Samples of brain tissue (basal ganglia and adjacent subcortical white matter) from macaques euthanized at 10 (n=6), 21′ (n=5), 56 (n=5) and 84 (n−=12) days p.i., and from uninfected control macaques (n=3 to 8) were fixed and embedded and […] sections were cut for immunohistochemical analysis of MAPKs. Of the macaques euthanized at 84 days p.i., one had no morphologic signs of encephalitis, two had mild encephalitis, five had moderate encephalitis and four had severe encephalitis based on morphologic criteria.
All macaques were euthanized at 84 days p.i. and their brains examined for pathological lesions typical of SIV encephalitis.

A further experiment concerns HIVIIIB. In words: HIV replication in primary human PBL, p24 ELISA. The format is cell-based. From the text:
(§1) The HIV strains used in these experiments were HIVBaL (for macrophage infection) and HIVIIIB (for lymphocyte infection); the SIV strains were SIV/17E-Fr and SIV/DeltaB670 (both grow well in primary macrophages and lymphocytes.).
(§2) Virus replication was quantified over time by p24 (HIV) or p27 (SIV) ELISA.
A general note: ELISA stands for enzyme-linked immunosorbent assay.

The next experiment deals with HIVBaL. Description: HIV replication in primary human macrophages, p24 ELISA. The format is cell-based.
Source text: as §1, §2

Experiment [2] has as its system SIV/17E-Fr and SIV/DeltaB670. Description: SIV replication in primary macaque PBL, p27 ELISA. The note with it: pretreated with minocycline 24 hr prior to infection. The format is cell-based.
Source text: as §1, §2

In experiment [3] the test system is SIV/17E-Fr and SIV/DeltaB670. Description: SIV replication in primary macaque macrophages, p27. The format is cell-based. To be noted: for reduction in SIV p27 levels: SIV/DeltaB670-infected macrophages, 10 days p.i.
Source text: as §1, §2
Inhibition of SIV Virus in vitro. […]

Where [4] appears, read: pretreated with minocycline 24 hr prior to infection.

As to `CN(C)c1ccc(O)c2c1C[C@H]1C[C@H]3[C@H](N(C)C)C(O)=C(C(N)=O)C(=O)[C@@]3(O)C(O)=C1C2=O` [Minocycline, [4S-(4a,4aa,5aa,12aa)-4,7-bis(dimethylamino)-1,4,4a,5,5a,6,11,12a-octahydro-3,10,12,12a-tetrahydroxy-1,11-dioxo-2-naphthacenecarboxamide]monohydrochloride], in experiment [1], the “Severity of Encephalitis: Mild (number of macaques)” value is 2, the “Severity of Encephalitis: Moderate (number of macaques)” value was 0, the “Severity of Encephalitis: None (number of macaques)” value is on record as 3 and the “Severity of Encephalitis: Severe (number of macaques)” value is listed as 0. Further, the “reduction in HIV p24 levels” value with HIVIIIB (HIV-infected lymphocytes, 40 μg/ml 24 hours prior to infection, 9 days p.i.) is 92%. Besides, the “inhibition of HIV replication in PBL” value in the experiment with HIVIIIB (setting [4]) amounted to 92%. In addition, the “reduction in HIV p24 levels” value in the experiment on HIVBaL (HIV-infected macrophages, 40 μg/ml 24 hours prior to infection, 9 days p.i.) worked out at 99%. In addition, in the experiment on HIVBaL (setting [4]), the “inhibition of HIV replication in macrophages” value was 99%. The “inhibition of SIV replication in PBL” value in experiment [2] stood at 99%. Further, in experiment [3] (SIV/17E-Fr-infected macrophages), the “inhibition of virus replication” value was 85%. In addition, in experiment [3] (10 μg/ml at the time of infection), the “reduction in SIV p27 levels” value was determined as 95%. Besides, the “reduction in SIV p27 levels” value in experiment [3] (40 μg/ml prior to infection) is 98%. In addition, the “inhibition of SIV replication in macrophages” value in experiment [3] (setting [4]) amounted to 85%.
